# In PMC12209990, “Effect of Cytochrome P450 3A Inhibition and Induction by Itraconazole and Rifampin on Tazemetostat Pharmacokinetics in Patients With Advanced Malignancies” (Clinical Pharmacology in Drug Development, 2025):
# Read-outs that look alike come from different tables or passages of the source.
# What was measured:
# [1] = Phase I DDI study Part 1: tazemetostat plasma PK alone and with itraconazole (noncompartmental analysis); type: in vivo, human; settings: for Cmax / Tmax / AUC / AUC(0-t) / half-life: human, plasma, Part 1; for Tmax: read-out: tmax, median (range)
# Excerpt: This was a Phase I, multicenter, open‐label, 2‐part study encompassing a fixed‐sequence design that aimed to characterize the PK of tazemetostat when administered as single and twice‐daily oral doses alone or in combination with either itraconazole (Part 1) or rifampin (Part 2). Secondary objectives were to evaluate the safety profile of tazemetostat when coadministered with either itraconazole (Part 1) or rifampin (Part 2).
# (§1) Part 1 of the study evaluated the DDI between tazemetostat and itraconazole. On the mornings of Days 1 and 15, patients received a single dose of tazemetostat 400 mg orally. On Days 3‐14, patients received tazemetostat 400 mg twice daily (morning and evening). On Days 18‐20, patients received itraconazole 200 mg orally once daily in the morning. On Days 21‐35, tazemetostat 400 mg twice daily was coadministered in the morning with a single dose of itraconazole 200 mg. On Day 36, patients received a single dose of tazemetostat 400 mg coadministered in the morning with a single dose of itraconazole 200 mg. On Days 37 and 38, patients received a single dose of itraconazole 200 mg (Figure 1A). Throughout Part 1, administration of itraconazole occurred 1 hour after a meal.
# In Part 1, plasma concentrations of tazemetostat following tazemetostat dosing on Days 1, 15, 21, and 36 were quantified for PK analyses before dosing (0 hour), and at 0.5, 1, 1.5, 2, 4, 6, 8, 12, 24 (Days 21‐22), 36, 48 (Days 1‐3), and up to 72 hours after dosing (Days 15‐18 and Days 36‐39).
# Plasma concentrations of tazemetostat, over the ranges of 1.00‐2000 ng/mL, were quantified by a fully validated liquid chromatography with tandem mass spectrometric detection analytical method. Samples that had no detectable peak or had the calculated concentration <1.00 ng/mL were reported as below the lower limit of quantification. Tazemetostat analysis consisted of protein precipitation extraction and separation using mobile phases of 100 mM ammonium formate/water (1:9 v/v) (mobile phase A) and 100 mM ammonium formate/acetonitrile (1:9 v/v) (mobile phase B). Detection was achieved using an API‐5500 mass spectrometer (AB Sciex) using electrospray ionization (positive‐ion mode) in the multiple reaction monitoring mode. The multiple reaction monitoring mode m/z transitions monitored were […] for tazemetostat and the dwell time was set at 300 milliseconds.
# Plasma concentration‐time data for tazemetostat were analyzed by noncompartmental analysis using the validated software program Phoenix WinNonlin Professional Version 8.3 (Certara Inc., Mountain View, CA).
# [2] = Safety (TEAEs) Part 1: tazemetostat coadministered with itraconazole
# Method: as §1
# Safety was assessed by monitoring treatment‐emergent adverse events (TEAEs) and vital signs, electrocardiography, and clinical laboratory tests. TEAEs were defined as adverse events that started or worsened in severity on or after the date of the first dose of the study drug through 30 days after the last dose. Treatment‐related TEAEs were summarized by each study drug for both study parts. Adverse events were coded using the Medical Dictionary for Regulatory Activities Version 23.1 and graded per Common Terminology Criteria for Adverse Events Version 5.0.
# [3] = single doses, Day 21/Day 1, compared with tazemetostat alone
# [4] = twice‐daily dosing, steady state, Day 36/Day 15
structure (smiles),measurement,setting,value
CCN(c1cc(-c2ccc(CN3CCOCC3)cc2)cc(C(=O)NCc2c(C)cc(C)[nH]c2=O)c1C)C1CCOCC1 [Tazemetostat],Cmax,"[1]; oral, tazemetostat 400 mg single dose with itraconazole 200 mg once daily, Day 21, read-out: Cmax, GeoMean (CV%)",1400 ng/mL
same,Cmax,"[1]; oral, tazemetostat 400 mg single dose with itraconazole 200 mg once daily, Day 21, read-out: Cmax, mean (SD)",1640 ng/mL
same,Tmax,"[1]; oral, tazemetostat 400 mg single dose with itraconazole 200 mg once daily, Day 21",1.53 h
same,AUC,"[1]; po, 400 mg, tazemetostat 400 mg oral single dose alone, Day 1, read-out: AUC0‐12 h, GeoMean (CV%)",2180 ng·h/mL
same,AUC,"[1]; po, 400 mg, tazemetostat 400 mg oral single dose alone, Day 1, read-out: AUC0‐12 h, mean (SD)",2460 ng·h/mL
same,AUC(0-t),"[1]; po, 400 mg, tazemetostat 400 mg oral single dose alone, Day 1, read-out: AUClast, GeoMean (CV%)",2640 ng·h/mL
same,AUC(0-t),"[1]; po, 400 mg, tazemetostat 400 mg oral single dose alone, Day 1, read-out: AUClast, mean (SD)",3250 ng·h/mL
same,Cmax,"[1]; po, 400 mg, tazemetostat 400 mg oral single dose alone, Day 1, read-out: Cmax, GeoMean (CV%)",704 ng/mL
same,Cmax,"[1]; po, 400 mg, tazemetostat 400 mg oral single dose alone, Day 1, read-out: Cmax, mean (SD)",803 ng/mL
same,half-life,"[1]; po, 400 mg, tazemetostat 400 mg oral single dose alone, Day 1, read-out: t1/2, GeoMean (CV%) (converted)",5.97 h
same,half-life,"[1]; po, 400 mg, tazemetostat 400 mg oral single dose alone, Day 1, read-out: t1/2, mean (SD) (converted)",6.13 h
same,Tmax,"[1]; po, 400 mg, tazemetostat 400 mg oral single dose alone, Day 1",1.44 h
same,increase of tazemetostat exposure by itraconazole,"[1]; overall, single dose and steady state",two to three times
same,increase of mean AUC0‐12h by itraconazole,[1]; [3],3.12 fold
same,increase of mean Cmax by itraconazole,[1]; [3],2.00 fold
same,increase of mean steady‐state AUC0‐12h by itraconazole,[1]; [4],2.47 fold
same,increase of mean steady‐state Cmax by itraconazole,[1]; [4],1.86 fold
same,Deaths due to serious TEAEs,"[2]; Part 1, within 30 days following the last dose, tazemetostat with itraconazole, neither considered treatment related",Two deaths
same,"Any TEAE Grade 3 or 4, patients","[2]; human, in vivo",11 (52.4) n (%)
same,"Any TEAE leading to dose reduction, patients","[2]; human, in vivo",0 n (%)
same,"Any TEAE leading to study drug discontinuation, patients","[2]; human, in vivo",1 (4.8) n (%)
same,"Any TEAE leading to study drug interruption, patients","[2]; human, in vivo",9 (42.9) n (%)
same,"Any TESAE, patients","[2]; human, in vivo",8 (38.1) n (%)
same,"Any treatment-related TEAE Grade 3 or 4, patients","[2]; human, in vivo",2 (9.5) n (%)
same,"Any treatment-related TESAE, patients","[2]; human, in vivo",0 n (%)
same,"TEAE anemia, frequency","[2]; human, in vivo",28.6%
same,"TEAE constipation, frequency","[2]; human, in vivo",23.8%
same,"TEAE decreased appetite, frequency","[2]; human, in vivo",33%
same,"TEAE dyspnea, frequency","[2]; human, in vivo",33%
same,"TEAE fatigue, frequency","[2]; human, in vivo",28.6%
same,"TEAE nausea, frequency","[2]; human, in vivo",28.6%
same,"Treatment-related TEAE Grade 3 or 4, related to the named study drug, patients","[2]; human, in vivo",2 (9.5) n (%)
same,"Treatment-related TEAEs, related to the named study drug, patients","[2]; human, in vivo",12 (57.1) n (%)
same,"Treatment-related TESAE, related to the named study drug, patients","[2]; human, in vivo",0 n (%)
same,Treatment‐related Grade 3/4 TEAE anemia,"[2]; human, in vivo",9.5%
same,Treatment‐related Grade 3/4 TEAE hyponatremia,"[2]; human, in vivo",4.8%
